Experimental findings from ChEMBL document CHEMBL1697781, “Assessment of the health effects of chemicals in humans: II. Construction of an adverse effects database for QSAR modeling” (Curr Drug Discov Technol, 2004) are described below.

Holding throughout (conditions): human
The subject of series [1] is Hepatotoxicity. Nature of the series: FDA HLAED, liver enzyme composite activity.
Series [2] has as its system Hepatotoxicity. In words: FDA HLAED, alkaline phosphatase increase.
For series [3], the system named is Hepatotoxicity. Nature of the series: FDA HLAED, serum glutamic oxaloacetic transaminase (SGOT) increase.
For series [4], the system named is Hepatotoxicity. Nature of the series: FDA HLAED, serum glutamic pyruvic transaminase (SGPT) increase.
Series [5] relates to Hepatotoxicity. Nature of the series: FDA HLAED, lactate dehydrogenase (LDH) increase.
The test system of series [6] is Hepatotoxicity. In words: FDA HLAED, gamma-glutamyl transferase (GGT) increase.

Structures are written as SMILES.
Wherever GGT Increase - Index Value is given: reference of the scale not given here.
Wherever LDH Increase - Index Value is given: reference of the scale not given here.

Turning to `CO/N=C(\C(=O)N[C@@H]1C(=O)N2C(C(=O)O)=CCS[C@H]12)c1csc(N)n1` [CEFTIZOXIME], in the series with Hepatotoxicity [1], the “Composite Activity - Active” value is given as 2, the “Composite Activity - Marginal” value is 0 and the “Composite Activity - Score” value is listed as “Active”. In addition, in the series on Hepatotoxicity [2], the “Alkaline Phosphatase Increase - Activity Score” value was “Inactive”, the “Alkaline Phosphatase Increase - Index Value” is given as 2.9 and the “Alkaline Phosphatase Increase - Number of Reports” value was “>= 4”. In addition, in the series on Hepatotoxicity [3], the “SGOT Increase - Activity Score” value is recorded as “Active”, the “SGOT Increase - Index Value” stood at 7.8 and the “SGOT Increase - Number of Reports” value is recorded as “>= 4”. In the series with Hepatotoxicity [4], the “SGPT Increase - Activity Score” value was “Active”, the “SGPT Increase - Index Value” was found to be 4 and the “SGPT Increase - Number of Reports” value is “>= 4”. In the series with Hepatotoxicity [5], the “LDH Increase - Activity Score” value is “Inactive”, the “LDH Increase - Index Value” was determined as 0.3 and the “LDH Increase - Number of Reports” value is reported as less than 4. Moreover, in the series with Hepatotoxicity [6], the “GGT Increase - Activity Score” value is on record as “Inactive”, the “GGT Increase - Index Value” amounted to 0 and the “GGT Increase - Number of Reports” value is less than 4.

Take `CO/N=C(\C(=O)N[C@@H]1C(=O)N2C(C(=O)O)=C(CSc3nc(=O)c(=O)[nH]n3C)CS[C@H]12)c1csc(N)n1` [CEFTRIAXONE]: in the series on Hepatotoxicity [1], the “Composite Activity - Active” value is given as 0, the “Composite Activity - Marginal” value came out at 3 and the “Composite Activity - Score” value was “Inactive”. For the same compound, in the series with Hepatotoxicity [2], the “Alkaline Phosphatase Increase - Activity Score” value is “Marginally Active”, the “Alkaline Phosphatase Increase - Index Value” is 3.4 and the “Alkaline Phosphatase Increase - Number of Reports” value is reported as “>= 4”. In the series on Hepatotoxicity [3], the “SGOT Increase - Activity Score” value is “Marginally Active”, the “SGOT Increase - Index Value” is reported as 3.8 and the “SGOT Increase - Number of Reports” value is “>= 4”. In the series with Hepatotoxicity [4], the “SGPT Increase - Activity Score” value was “Marginally Active”, the “SGPT Increase - Index Value” amounted to 3.8 and the “SGPT Increase - Number of Reports” value was “>= 4”. Also, in the series with Hepatotoxicity [5], the “LDH Increase - Activity Score” value was “Inactive”, the “LDH Increase - Index Value” worked out at 1.9 and the “LDH Increase - Number of Reports” value was “>= 4”. Also, in the series with Hepatotoxicity [6], the “GGT Increase - Activity Score” value is given as “Inactive”, the “GGT Increase - Index Value” worked out at 2.6 and the “GGT Increase - Number of Reports” value was “>= 4”.

Consider `CO/N=C(\C(=O)N[C@@H]1C(=O)N2C(C(=O)OC(C)OC(C)=O)=C(COC(N)=O)CS[C@H]12)c1ccco1` (stereo partly drawn) [CEFUROXIME AXETIL], for which, in the series on Hepatotoxicity [1], the “Composite Activity - Active” value was determined as 0, the “Composite Activity - Marginal” value is listed as 0 and the “Composite Activity - Score” value is reported as “Inactive”. For the same compound, in the series with Hepatotoxicity [2], the “Alkaline Phosphatase Increase - Activity Score” value was “Inactive”, the “Alkaline Phosphatase Increase - Index Value” was found to be 0 and the “Alkaline Phosphatase Increase - Number of Reports” value was less than 4. Besides, in the series with Hepatotoxicity [3], the “SGOT Increase - Activity Score” value is “Inactive”, the “SGOT Increase - Index Value” turned out to be 0 and the “SGOT Increase - Number of Reports” value is given as less than 4. Also, in the series with Hepatotoxicity [4], the “SGPT Increase - Activity Score” value is “Inactive”, the “SGPT Increase - Index Value” came out at 0 and the “SGPT Increase - Number of Reports” value is listed as less than 4. Besides, in the series on Hepatotoxicity [5], the “LDH Increase - Activity Score” value was “Inactive”, the “LDH Increase - Index Value” came to 0 and the “LDH Increase - Number of Reports” value was less than 4. For the same compound, in the series on Hepatotoxicity [6], the “GGT Increase - Activity Score” value is given as “Inactive”, the “GGT Increase - Index Value” is given as 0 and the “GGT Increase - Number of Reports” value was less than 4.

`CO/N=C(/C(=O)N[C@@H]1C(=O)N2C(C(=O)OC(C)OC(=O)C(C)(C)OC)=C(COC(N)=O)CS[C@H]12)c1ccco1` (stereo partly drawn) [CEFUROXIME PIVOXETIL]: in the series on Hepatotoxicity [1], the “Composite Activity - Active” value is on record as 0, the “Composite Activity - Marginal” value came to 0 and the “Composite Activity - Score” value was “Inactive”. Besides, in the series with Hepatotoxicity [2], the “Alkaline Phosphatase Increase - Activity Score” value is given as “Inactive”, the “Alkaline Phosphatase Increase - Index Value” worked out at 0 and the “Alkaline Phosphatase Increase - Number of Reports” value was less than 4. Moreover, in the series on Hepatotoxicity [3], the “SGOT Increase - Activity Score” value is given as “Inactive”, the “SGOT Increase - Index Value” worked out at 0 and the “SGOT Increase - Number of Reports” value is listed as less than 4. For the same compound, in the series with Hepatotoxicity [4], the “SGPT Increase - Activity Score” value is “Inactive”, the “SGPT Increase - Index Value” is reported as 0 and the “SGPT Increase - Number of Reports” value is listed as less than 4. For the same compound, in the series on Hepatotoxicity [5], the “LDH Increase - Activity Score” value was “Inactive”, the “LDH Increase - Index Value” turned out to be 0 and the “LDH Increase - Number of Reports” value was less than 4. In the series on Hepatotoxicity [6], the “GGT Increase - Activity Score” value is “Inactive”, the “GGT Increase - Index Value” was 0 and the “GGT Increase - Number of Reports” value was less than 4.

Take `CO/N=C(\C(=O)N[C@@H]1C(=O)N2C(C(=O)O)=C(COC(N)=O)CS[C@H]12)c1ccco1` [CEFUROXIME]: in the series on Hepatotoxicity [1], the “Composite Activity - Active” value stood at 0, the “Composite Activity - Marginal” value is given as 0 and the “Composite Activity - Score” value was “Inactive”. In the series on Hepatotoxicity [2], the “Alkaline Phosphatase Increase - Activity Score” value is on record as “Inactive”, the “Alkaline Phosphatase Increase - Index Value” was 0 and the “Alkaline Phosphatase Increase - Number of Reports” value was less than 4. In addition, in the series with Hepatotoxicity [3], the “SGOT Increase - Activity Score” value is listed as “Inactive”, the “SGOT Increase - Index Value” is 0.2 and the “SGOT Increase - Number of Reports” value is listed as less than 4. In addition, in the series with Hepatotoxicity [4], the “SGPT Increase - Activity Score” value is reported as “Inactive”, the “SGPT Increase - Index Value” was 0 and the “SGPT Increase - Number of Reports” value is less than 4. Moreover, in the series on Hepatotoxicity [5], the “LDH Increase - Activity Score” value is given as “Inactive”, the “LDH Increase - Index Value” is given as 0 and the “LDH Increase - Number of Reports” value is less than 4. Also, in the series with Hepatotoxicity [6], the “GGT Increase - Activity Score” value is “Inactive”, the “GGT Increase - Index Value” is recorded as 0 and the “GGT Increase - Number of Reports” value is reported as less than 4.

For `CC(=O)OCC1=C(C(=O)O)N2C(=O)[C@@H](NC(=O)CSc3ccncc3)[C@H]2SC1` [CEPHAPIRIN], in the series with Hepatotoxicity [1], the “Composite Activity - Active” value stood at 0, the “Composite Activity - Marginal” value was found to be 0 and the “Composite Activity - Score” value is “Inactive”. In the series with Hepatotoxicity [2], the “Alkaline Phosphatase Increase - Activity Score” value is “Inactive”, the “Alkaline Phosphatase Increase - Index Value” worked out at 0 and the “Alkaline Phosphatase Increase - Number of Reports” value is less than 4. Further, in the series on Hepatotoxicity [3], the “SGOT Increase - Activity Score” value is listed as “Inactive”, the “SGOT Increase - Index Value” is given as 0 and the “SGOT Increase - Number of Reports” value was less than 4. Further, in the series with Hepatotoxicity [4], the “SGPT Increase - Activity Score” value is recorded as “Inactive”, the “SGPT Increase - Index Value” turned out to be 0 and the “SGPT Increase - Number of Reports” value is listed as less than 4. Besides, in the series with Hepatotoxicity [5], the “LDH Increase - Activity Score” value is “Inactive”, the “LDH Increase - Index Value” amounted to 0 and the “LDH Increase - Number of Reports” value is on record as less than 4. Besides, in the series with Hepatotoxicity [6], the “GGT Increase - Activity Score” value is given as “Inactive”, the “GGT Increase - Index Value” came to 0 and the “GGT Increase - Number of Reports” value is given as less than 4.
